Reference: patent US12581252B2, “Substituted pyrrolo[3,4-b]pyridines as PI3K-α inhibitors” (Relay Therapeutics, Inc., priority 2020, dated 2026)

What was measured:
cells = conditions: Homo sapiens, MCF-10A, read-out: MCF10A IC50
H1047R PIK3CA enzyme = H1047R PIK3CA enzyme (Homo sapiens, UniProt P42336, H1047R); assay: ADP-Glo Biochemical PIK3CA Kinase Assay
Sequence of H1047R PIK3CA enzyme (P42336 whole entry H1047R): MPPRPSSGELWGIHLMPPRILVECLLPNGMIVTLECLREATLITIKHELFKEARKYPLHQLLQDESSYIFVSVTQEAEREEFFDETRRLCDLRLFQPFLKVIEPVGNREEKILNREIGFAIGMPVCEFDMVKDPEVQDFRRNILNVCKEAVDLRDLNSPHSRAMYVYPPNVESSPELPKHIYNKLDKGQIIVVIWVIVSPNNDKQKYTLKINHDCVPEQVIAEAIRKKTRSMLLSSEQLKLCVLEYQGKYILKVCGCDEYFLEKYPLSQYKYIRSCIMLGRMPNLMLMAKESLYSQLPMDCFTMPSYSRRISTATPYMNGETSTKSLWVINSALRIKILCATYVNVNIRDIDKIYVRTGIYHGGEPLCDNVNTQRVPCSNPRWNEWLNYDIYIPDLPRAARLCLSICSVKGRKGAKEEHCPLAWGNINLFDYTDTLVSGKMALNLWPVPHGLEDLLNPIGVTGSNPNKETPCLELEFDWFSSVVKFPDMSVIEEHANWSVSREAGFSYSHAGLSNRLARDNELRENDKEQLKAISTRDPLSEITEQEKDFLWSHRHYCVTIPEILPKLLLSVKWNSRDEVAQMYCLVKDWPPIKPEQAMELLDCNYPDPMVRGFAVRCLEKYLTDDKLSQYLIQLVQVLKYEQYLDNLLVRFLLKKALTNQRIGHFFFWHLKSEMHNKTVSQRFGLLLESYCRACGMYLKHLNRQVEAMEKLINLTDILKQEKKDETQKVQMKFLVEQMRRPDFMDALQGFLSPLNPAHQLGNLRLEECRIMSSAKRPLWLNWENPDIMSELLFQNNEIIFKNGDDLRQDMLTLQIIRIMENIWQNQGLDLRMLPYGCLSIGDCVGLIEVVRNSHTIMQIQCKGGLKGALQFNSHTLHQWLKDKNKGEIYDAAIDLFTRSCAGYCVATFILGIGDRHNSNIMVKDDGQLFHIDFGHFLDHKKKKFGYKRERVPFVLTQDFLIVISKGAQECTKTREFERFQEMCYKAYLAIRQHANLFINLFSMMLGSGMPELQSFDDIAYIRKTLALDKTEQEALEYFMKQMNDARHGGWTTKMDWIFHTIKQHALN
Sequence of H1047R PIK3CA enzyme (P27986 whole entry partner): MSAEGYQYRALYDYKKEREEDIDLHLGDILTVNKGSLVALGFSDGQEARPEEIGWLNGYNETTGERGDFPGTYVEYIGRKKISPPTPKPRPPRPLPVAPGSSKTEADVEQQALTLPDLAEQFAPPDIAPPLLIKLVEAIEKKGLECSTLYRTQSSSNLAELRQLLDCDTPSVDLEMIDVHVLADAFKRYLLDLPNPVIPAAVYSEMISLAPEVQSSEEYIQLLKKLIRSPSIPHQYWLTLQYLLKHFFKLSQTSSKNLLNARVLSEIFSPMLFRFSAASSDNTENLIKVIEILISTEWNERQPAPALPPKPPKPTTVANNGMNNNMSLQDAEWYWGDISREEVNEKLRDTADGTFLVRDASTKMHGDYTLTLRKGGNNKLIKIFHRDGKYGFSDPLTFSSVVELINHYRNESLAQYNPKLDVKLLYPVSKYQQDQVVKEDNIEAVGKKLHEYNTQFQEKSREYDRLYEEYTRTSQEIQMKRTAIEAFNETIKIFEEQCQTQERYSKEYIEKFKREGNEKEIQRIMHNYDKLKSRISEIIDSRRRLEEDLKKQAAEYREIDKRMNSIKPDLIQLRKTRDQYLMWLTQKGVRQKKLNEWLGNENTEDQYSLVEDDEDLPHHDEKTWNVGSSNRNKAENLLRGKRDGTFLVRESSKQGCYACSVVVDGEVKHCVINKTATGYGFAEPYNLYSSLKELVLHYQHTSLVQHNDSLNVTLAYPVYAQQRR

## N#CC1(COc2cc(NC(=O)N3C[C@@H](O)c4cc(F)ccc43)c3c(c2)C(=O)N[C@@H]3c2cc(F)ccc2Cl)CC1 (single isomer, unassigned) [Compound I-2552]
cells
  IC50: 1000 to 5000 nM
H1047R PIK3CA enzyme
  IC50: ≤ 100 nM

## O=C1N[C@H](c2cc(F)ccc2Cl)c2c(NC(=O)N3C[C@](O)(C(F)F)c4cc(F)ccc43)cccc21 (single isomer, unassigned) [Compound I-2558]
cells
  IC50: < 1000 nM
H1047R PIK3CA enzyme
  IC50: ≤ 100 nM

## N#Cc1cc(NC(=O)N2C[C@@](O)(C(F)(F)F)c3cc(F)ccc32)c2c(c1)C(=O)N[C@@H]2c1cc(F)ccc1Cl (single isomer, unassigned) [Compound I-2560]
cells
  IC50: < 1000 nM
H1047R PIK3CA enzyme
  IC50: ≤ 100 nM

## N#Cc1cc(NC(=O)N2C[C@](O)(C(F)(F)F)c3cc(F)ccc32)c2c(c1)C(=O)N[C@@H]2c1cc(F)ccc1Cl (single isomer, unassigned) [Compound I-2562]
cells
  IC50: < 1000 nM
H1047R PIK3CA enzyme
  IC50: ≤ 100 nM

## N#Cc1cc(NC(=O)N2C[C@@](O)(C(F)(F)F)c3ccccc32)c2c(c1)C(=O)N[C@@H]2c1cc(F)ccc1Cl (single isomer, unassigned) [Compound I-2564]
cells
  IC50: < 1000 nM
H1047R PIK3CA enzyme
  IC50: ≤ 100 nM

## O=C1N[C@H](c2cc(F)ccc2Cl)c2c(NC(=O)N3C[C@@](O)(C(F)(F)F)c4cc(F)ccc43)cc(-n3nccn3)cc21 (single isomer, unassigned) [Compound I-2569]
cells
  IC50: < 1000 nM
H1047R PIK3CA enzyme
  IC50: ≤ 100 nM

## CC(=O)Nc1cc(NC(=O)N2C[C@](O)(C(F)(F)F)c3cc(F)ccc32)c2c(c1)C(=O)N[C@@H]2c1cc(F)ccc1Cl (single isomer, unassigned) [Compound I-2573]
cells
  IC50: < 1000 nM
H1047R PIK3CA enzyme
  IC50: ≤ 100 nM

## O=C1N[C@H](c2cc(F)ccc2Cl)c2c(NC(=O)N3C[C@](O)(C(F)(F)F)c4cc(F)ccc43)cc(C(F)F)cc21 (single isomer, unassigned) [Compound I-2579]
cells
  IC50: < 1000 nM
H1047R PIK3CA enzyme
  IC50: ≤ 100 nM

## NCCc1cc(NC(=O)N2C[C@@](O)(C(F)(F)F)c3cc(F)ccc32)c2c(c1)C(=O)N[C@H]2c1cc(F)ccc1Cl (single isomer, unassigned) [Compound I-2581]
cells
  IC50: 10000 to 36000 nM
H1047R PIK3CA enzyme
  IC50: ≤ 100 nM

## [2H]C1([2H])N(C(=O)Nc2cccc3c2[C@H](c2cc(F)ccc2Cl)NC3=O)c2ccc(F)cc2[C@]1(O)C(F)(F)F (single isomer, unassigned) [Compound I-2595]
cells
  IC50: < 1000 nM
H1047R PIK3CA enzyme
  IC50: ≤ 100 nM

## N#CCc1cc(NC(=O)N2C[C@](O)(C(F)F)c3cc(F)ccc32)c2c(c1)C(=O)N[C@H]2c1cc(F)ccc1Cl (single isomer, unassigned) [Compound I-2601]
cells
  IC50: < 1000 nM
H1047R PIK3CA enzyme
  IC50: ≤ 100 nM

## N#CCc1cc(NC(=O)N2C[C@](O)(C(F)(F)F)c3ccccc32)c2c(c1)C(=O)N[C@@H]2c1cc(F)ccc1Cl (single isomer, unassigned) [Compound I-2605]
cells
  IC50: < 1000 nM
H1047R PIK3CA enzyme
  IC50: ≤ 100 nM

## CNc1cc(NC(=O)N2C[C@](O)(C(F)(F)F)c3cc(F)ccc32)c2c(c1C#N)C(=O)N[C@@H]2c1cc(F)ccc1Cl (single isomer, unassigned) [Compound I-2609]
cells
  IC50: < 1000 nM
H1047R PIK3CA enzyme
  IC50: ≤ 100 nM

## CC(C)(C#N)n1cc(-c2cc(NC(=O)N3C[C@@](O)(C(F)(F)F)c4cc(F)ccc43)c3c(c2)C(=O)N[C@@H]3c2cc(F)ccc2Cl)cn1 (single isomer, unassigned) [Compound I-2613]
cells
  IC50: < 1000 nM
H1047R PIK3CA enzyme
  IC50: ≤ 100 nM

## N#CCc1ccc(NC(=O)N2C[C@](O)(C(F)(F)F)c3cc(F)ccc32)c2c1C(=O)N[C@H]2c1cc(F)ccc1Cl (single isomer, unassigned) [Compound I-2614]
cells
  IC50: < 1000 nM
H1047R PIK3CA enzyme
  IC50: ≤ 100 nM

## O=C1N[C@H](c2cc(F)ccc2Cl)c2c(NC(=O)N3C[C@](O)(C(F)(F)F)c4cc(F)ccc43)ccc(Cl)c21 (single isomer, unassigned) [Compound I-2618]
cells
  IC50: < 1000 nM
H1047R PIK3CA enzyme
  IC50: ≤ 100 nM

## N#CCc1cc(NC(=O)N2C[C@](O)(C(F)(F)F)c3cc(F)ccc32)c2c(c1)C(=O)N[C@@H]2c1cc(F)ccc1Cl (single isomer, unassigned) [Compound I-2627]
cells
  IC50: < 1000 nM
H1047R PIK3CA enzyme
  IC50: ≤ 100 nM

## O=C1N[C@@H](c2cc(F)ccc2Cl)c2c(NC(=O)N3C[C@](O)(C(F)(F)F)c4cc(F)ccc43)cc(F)cc21 (single isomer, unassigned) [Compound I-2630]
cells
  IC50: < 1000 nM
H1047R PIK3CA enzyme
  IC50: 1000 to 10000 nM

## O=C1N[C@@H](c2cc(F)ccc2Cl)c2c(NC(=O)N3C[C@](O)(C(F)F)c4cc(F)ccc43)cc(F)cc21 (single isomer, unassigned) [Compound I-2635]
cells
  IC50: < 1000 nM
H1047R PIK3CA enzyme
  IC50: ≤ 100 nM

## Cc1cn(-c2cc(NC(=O)N3C[C@](O)(C(F)(F)F)c4cc(F)ccc43)c3c(c2)C(=O)N[C@@H]3c2cc(F)ccc2Cl)cn1 (single isomer, unassigned) [Compound I-2637]
cells
  IC50: < 1000 nM
H1047R PIK3CA enzyme
  IC50: ≤ 100 nM

## CNc1cc(NC(=O)N2C[C@@](O)(C(F)(F)F)c3cc(F)ccc32)c2c(c1)C(=O)N[C@@H]2c1cc(F)ccc1Cl (single isomer, unassigned) [Compound I-2640]
cells
  IC50: < 1000 nM
H1047R PIK3CA enzyme
  IC50: ≤ 100 nM

## CNc1cc(NC(=O)N2C[C@](O)(C(F)(F)F)c3cc(F)ccc32)c2c(n1)C(=O)N[C@@H]2c1cc(F)ccc1Cl (single isomer, unassigned) [Compound I-2644]
cells
  IC50: < 1000 nM
H1047R PIK3CA enzyme
  IC50: ≤ 100 nM

## CC(C)(CN)n1cc(-c2cc(NC(=O)N3C[C@@](O)(C(F)(F)F)c4cc(F)ccc43)c3c(c2)C(=O)N[C@@H]3c2cc(F)ccc2Cl)cn1 (single isomer, unassigned) [Compound I-2649]
cells
  IC50: 1000 to 5000 nM
H1047R PIK3CA enzyme
  IC50: ≤ 100 nM

## O=C1N[C@@H](c2cc(F)ccc2Cl)c2c(NC(=O)N3C[C@](O)(C(F)(F)F)c4cc(F)ccc43)cc(C3COC3)cc21 (single isomer, unassigned) [Compound I-2655]
cells
  IC50: < 1000 nM
H1047R PIK3CA enzyme
  IC50: ≤ 100 nM

## CC1(Cc2cc(NC(=O)N3C[C@](O)(C(F)(F)F)c4cc(F)ccc43)c3c(c2)C(=O)N[C@@H]3c2cc(F)ccc2Cl)COC1 (single isomer, unassigned) [Compound I-2657]
cells
  IC50: < 1000 nM
H1047R PIK3CA enzyme
  IC50: ≤ 100 nM

## Cc1nccn1-c1cc(NC(=O)N2C[C@@](O)(C(F)(F)F)c3cc(F)ccc32)c2c(c1)C(=O)N[C@@H]2c1cc(F)ccc1Cl (single isomer, unassigned) [Compound I-2661]
cells
  IC50: < 1000 nM
H1047R PIK3CA enzyme
  IC50: ≤ 100 nM

## O=C1N[C@H](c2cc(F)ccc2Cl)c2c(NC(=O)N3C[C@@](O)(C(F)(F)F)c4cc(F)ccc43)cc(N3CCCC3=O)cc21 (single isomer, unassigned) [Compound I-2665]
cells
  IC50: < 1000 nM
H1047R PIK3CA enzyme
  IC50: ≤ 100 nM

## N#Cc1cnn(Cc2cc(NC(=O)N3C[C@](O)(C(F)(F)F)c4cc(F)ccc43)c3c(c2)C(=O)N[C@@H]3c2cc(F)ccc2Cl)c1 (single isomer, unassigned) [Compound I-2669]
cells
  IC50: < 1000 nM
H1047R PIK3CA enzyme
  IC50: ≤ 100 nM

## O=C1N[C@H](c2cc(F)ccc2Cl)c2c(NC(=O)N3C[C@@](O)(C(F)(F)F)c4cc(F)ccc43)cc(N3CCOC3=O)cc21 (single isomer, unassigned) [Compound I-2673]
cells
  IC50: < 1000 nM
H1047R PIK3CA enzyme
  IC50: ≤ 100 nM

## [2H][C@@]1(c2cc(F)ccc2Cl)NC(=O)c2cccc(NC(=O)N3C[C@@](O)(C(F)(F)F)c4cc(F)ccc43)c21 (single isomer, unassigned) [Compound I-2682]
cells
  IC50: < 1000 nM
H1047R PIK3CA enzyme
  IC50: ≤ 100 nM
